Experimental data from patent US8530519B2, “Method for promoting upper gastrointestinal bicarbonate secretion” (Sucampo AG, priority 2006, dated 2013).

How the values were obtained:
[1] = system: male Wistar rats; test: Effect on bicarbonate secretion into bile in rats after oral dosing; type: in vivo, rat
Method: The effect of Compound A (13,14-dihydro-15-keto-16,16-difluoro-18(S)-methyl-PGE1) on Gastrointestinal bicarbonate secretion was studied.
Seven weeks old male Wistar rats were used in this study. Compound A at a dose of 100 μg/kg was administered orally to the animals three times daily for 7 days. Control animals received an equal volume of the vehicle (distilled water containing 0.01% polysorbate 80 and 0.5% ethanol). On the next morning of the final administration (about 17 hours after the final administration), a polyethylene catheter (PE10, Becton Dickinson and Company) was inserted into the common bile duct of the animal under ether anesthesia. The animals were placed into a Borrmann's cage individually and allowed to recover from the anesthesia for 1 hour. Bile was collected for 1 hour between 1 and 2 hours after inserting the catheter. The amount of bicarbonate (HCO3^−) in the bile was measured with an automated pH/blood gas analyzer (model 170, Ciba Corning Diagnostics Corp.).

[2] = system: PG receptors such as EP and FP receptors; conditions: Journal of Ocular Pharmacology and Therapeutics 17(5), 433-441, 2001; cited from earlier work

SMILES: CC[C@H](C)CC(F)(F)C(=O)CC[C@H]1[C@H](O)CC(=O)[C@@H]1CCCCCCC(=O)O [Compound A, 13,14-dihydro-15-keto-16,16-difluoro-18(S)-methyl-PGE1]
- amount of bicarbonate secreted into the bile compared with the control group ([1]; 100 μg/kg orally three times daily for 7 days, Wistar rats): increased significantly
- Bicarbonate secretion Mean ± S.E. ([1]; 100 μg/kg p.o., TID for 7 days, bile collected for 1 hour, about 17 hours after the final administration, n=7, *p < 0.05 compared with control group (control 10.16 ± 0.81)): 13.33 ± 1.00* μmol/hr/100 g body weight

SMILES: CCCCCCCC(=O)CC[C@@H]1[C@@H](C/C=C\CCCC(=O)OC(C)C)[C@@H](O)C[C@H]1O [unoprostone isopropyl]
- affinity for PG receptors such as EP and FP receptors [2]: does not have affinity
